Assay results taken from paper PMC2798597 (Biochemical pharmacology, 2009).

Key:
KBv200 cell xenografts = experiment: MDR human carcinoma xenograft model; assay type: in vivo, athymic nude mice
[1] = tested on: ABCB1 expression in KBv200 cells; conditions: 48 h, Western blot
[2] = FG020326 plasma levels in mice; assay type: in vivo; conditions: NIH mice, 100 mg/kg p.o.; for plasma concentration at 8 h: 8 h after administration
MCF-7 = experiment: MTT cytotoxicity / MDR reversal; assay type: cell-based, human; conditions: MCF-7 cells
KB-CV60 (ABCC1) = experiment: MTT cytotoxicity / MDR reversal; assay type: cell-based, human; conditions: KB-CV60 cells; +5 µM FG020326
SW1573 = experiment: MTT cytotoxicity / MDR reversal; assay type: cell-based, human; conditions: SW1573 cells; +5 µM FG020326
NIH3T3/MRP-4-2 (ABCC4) = experiment: MTT cytotoxicity / MDR reversal; assay type: cell-based, murine; conditions: NIH3T3/MRP-4-2 cells; +5 µM FG020326
KBv200 cells [3] = experiment: Intracellular Dox accumulation; assay type: cell-based, human
ABCB1 = ABCB1 (Homo sapiens, UniProt P08183); assay type: biochemical; conditions: read-out: IC50, inhibition of ABCB1 ATPase activity; Vi-sensitive ATPase; membrane vesicles of High Five insect cells
Chain of ABCB1 (P08183 whole entry): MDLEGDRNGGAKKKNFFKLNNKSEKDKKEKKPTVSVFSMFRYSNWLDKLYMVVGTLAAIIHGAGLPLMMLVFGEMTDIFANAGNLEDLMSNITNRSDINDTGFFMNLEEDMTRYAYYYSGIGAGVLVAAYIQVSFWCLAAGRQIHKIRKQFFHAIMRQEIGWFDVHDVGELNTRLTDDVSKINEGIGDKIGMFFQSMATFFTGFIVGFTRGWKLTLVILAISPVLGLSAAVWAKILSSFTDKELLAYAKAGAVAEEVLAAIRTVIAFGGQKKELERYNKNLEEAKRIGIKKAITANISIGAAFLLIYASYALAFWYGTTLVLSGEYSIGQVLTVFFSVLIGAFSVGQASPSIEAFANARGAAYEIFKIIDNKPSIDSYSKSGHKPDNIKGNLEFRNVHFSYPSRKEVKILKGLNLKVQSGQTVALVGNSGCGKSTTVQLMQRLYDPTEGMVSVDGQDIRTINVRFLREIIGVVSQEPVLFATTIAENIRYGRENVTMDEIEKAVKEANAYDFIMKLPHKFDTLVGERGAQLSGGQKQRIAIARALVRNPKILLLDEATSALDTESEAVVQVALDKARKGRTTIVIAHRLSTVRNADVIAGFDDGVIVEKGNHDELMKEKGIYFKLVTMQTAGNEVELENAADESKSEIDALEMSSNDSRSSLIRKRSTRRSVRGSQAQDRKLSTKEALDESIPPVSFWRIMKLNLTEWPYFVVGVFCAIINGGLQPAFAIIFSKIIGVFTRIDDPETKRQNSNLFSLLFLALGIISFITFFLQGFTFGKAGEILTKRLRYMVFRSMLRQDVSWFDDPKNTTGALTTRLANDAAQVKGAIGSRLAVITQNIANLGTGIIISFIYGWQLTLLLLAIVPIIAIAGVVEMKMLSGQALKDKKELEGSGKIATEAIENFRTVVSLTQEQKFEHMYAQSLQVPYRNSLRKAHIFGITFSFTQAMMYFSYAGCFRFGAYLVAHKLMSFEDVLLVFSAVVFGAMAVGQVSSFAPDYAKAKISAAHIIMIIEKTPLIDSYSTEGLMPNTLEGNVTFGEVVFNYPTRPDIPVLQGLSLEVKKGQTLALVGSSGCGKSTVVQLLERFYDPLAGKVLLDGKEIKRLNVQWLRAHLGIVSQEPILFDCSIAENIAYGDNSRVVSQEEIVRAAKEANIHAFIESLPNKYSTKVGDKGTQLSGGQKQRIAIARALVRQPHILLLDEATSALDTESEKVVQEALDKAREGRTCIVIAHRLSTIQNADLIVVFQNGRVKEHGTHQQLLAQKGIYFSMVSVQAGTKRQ

KB cells [4] = experiment: Intracellular Dox accumulation; assay type: cell-based, human; conditions: drug sensitive KB cells; 0.625-10 µM
[5] = tested on: the entire cell lines tested; experiment: MTT cytotoxicity of FG020326 alone; assay type: cell-based
S1 = experiment: MTT cytotoxicity / MDR reversal; assay type: cell-based; conditions: S1 cells; +5 µM FG020326
KBv200 cells [6] = experiment: Dox efflux; assay type: cell-based, human; conditions: 5 µM FG020326
KB cells [7] = experiment: Dox efflux; assay type: cell-based, human; conditions: 5 µM FG020326
MCF-7/adr (ABCB1) = experiment: MTT cytotoxicity / MDR reversal; assay type: cell-based, human; conditions: MCF-7/adr cells
NIH3T3 = experiment: MTT cytotoxicity / MDR reversal; assay type: cell-based, murine; conditions: NIH3T3 cells; +5 µM FG020326
KB = experiment: MTT cytotoxicity / MDR reversal; assay type: cell-based, human; conditions: KB cells
KB-3-1 = experiment: MTT cytotoxicity / MDR reversal; assay type: cell-based, human; conditions: KB-3-1 cells; +5 µM FG020326
KB cells [8] = experiment: ABCB1 function analysis, Rho 123 retention; assay type: cell-based, human; conditions: drug sensitive KB cells
S1-M1-80 (ABCG2) = experiment: MTT cytotoxicity / MDR reversal; assay type: cell-based; conditions: S1-M1-80 cells; +5 µM FG020326
KBv200 (ABCB1) = experiment: MTT cytotoxicity / MDR reversal; assay type: cell-based, human; conditions: KBv200 cells
SW1573/2R120 (LRP) = experiment: MTT cytotoxicity / MDR reversal; assay type: cell-based, human; conditions: SW1573/2R120 cells; +5 µM FG020326
[9] = VCR experiment, VCR 0.2 mg/kg i.p. q2d×6, FG020326 100 mg/kg p.o. q2d×6
[10] = paclitaxel experiment, paclitaxel 18 mg/kg i.p. q5d×3, FG020326 100 mg/kg p.o.

With `COC(=O)/C=C/c1ccc(-c2nc(-c3ccc(N(C)C(C)C)cc3)c(-c3ccc(N(C)C(C)C)cc3)[nH]2)cc1` [FG020326, 2-[(4-Methyl-trans-acrylate)phenyl]-4,5-bis-(4-N, N-methyl-isopropyl-aminophenyl)-1(H)-imidazole] the “Growth Inhibition” value (KBv200 cell xenografts; [9]) was 9.4%, the Weight of tumor (KBv200 cell xenografts; [9]) was 2.43 ± 0.70 g and the “Growth Inhibition” value (KBv200 cell xenografts; [10]) was 7.2%. The Weight of tumor (KBv200 cell xenografts; [10]) was 2.08 ± 1.00 g, the “effect on ABCB1 protein expression level” value [1] was “no marked difference” and the peak plasma concentration ([2]; 100 mg/kg) was “about 5.3 µM”. The “plasma concentration at 8 h” value ([2]; 100 mg/kg) was “not less than 1.24 µM”, the “plasma concentration at 8 h” value ([2]; listed as FG020236, 100 mg/kg) was > 1240 nM and the “plasma concentration at 12 h” value ([2]; 12 h after administration) was 920 nM. The peak plasma concentration ([2]; listed as FG020236, 100 mg/kg) was 5.3 µM, the “fold-reversal (doxorubicin)” value (MCF-7; +1.25 µM FG020326) was “(1.0) fold” and the “fold-reversal (paclitaxel)” value (MCF-7; +1.25 µM FG020326) was “(1.1) fold”. The “fold-reversal (vincristine)” value (MCF-7; +1.25 µM FG020326) was “(0.9) fold”, the “fold-reversal (doxorubicin)” value (MCF-7; +2.5 µM FG020326) was “(1.0) fold” and the “fold-reversal (paclitaxel)” value (MCF-7; +2.5 µM FG020326) was “(1.0) fold”. The “fold-reversal (vincristine)” value (MCF-7; +2.5 µM FG020326) was “(1.0) fold”, the “fold-reversal (cisplatin)” value (MCF-7; +5 µM FG020326) was “(0.9) fold” and the “fold-reversal (doxorubicin)” value (MCF-7; +5 µM FG020326) was “(0.9) fold”. For the same compound, the “fold-reversal (paclitaxel)” value (MCF-7; +5 µM FG020326) was “(1.0) fold”, the “fold-reversal (vincristine)” value (MCF-7; +5 µM FG020326) was “(0.9) fold” and the “fold-reversal (vincristine)” value (KB-CV60 (ABCC1)) was “(0.9) fold”. For the same compound, the “fold-reversal (doxorubicin)” value (SW1573) was “(1.2) fold”, the “fold-reversal (vincristine)” value (NIH3T3/MRP-4-2 (ABCC4)) was “(0.9) fold” and the “enhancement of Dox accumulation” value (KBv200 cells [3]; 0.625 µM FG020326, 10 µM Dox) was 1.4 fold. The “enhancement of Dox accumulation” value (KBv200 cells [3]; 1.25 µM FG020326, 10 µM Dox) was 2.1 fold, the “enhancement of Dox accumulation” value (KBv200 cells [3]; 2.5 µM FG020326, 10 µM Dox) was 2.6 fold and the “enhancement of Dox accumulation” value (KBv200 cells [3]; 5 µM FG020326, 10 µM Dox) was 3.0 fold. For the same compound, the “enhancement of Dox accumulation” value (KBv200 cells [3]; 10 µM FG020326, 10 µM Dox) was 3.7 fold, the IC50 (ABCB1) was 2500 nM and the “effect on intracellular accumulation of Dox” value (KB cells [4]) was “did not significantly alter the intracellular accumulation of Dox”. The Cell survival ([5]; all cell lines, concentrations used to reverse MDR, data not shown) was > 90%, the IC50 ([5]; read-out: IC50 (cytotoxicity of FG020326 alone), MTT, entire cell lines tested) was > 50000 nM and the “fold-reversal (topotecan)” value (S1) was “(1.1) fold”. The “effect on efflux of Dox” value (KBv200 cells [6]) was “significantly inhibited the efflux of Dox”, the “effect on efflux of Dox” value (KB cells [7]) was “but not the KB cells” and the “fold-reversal (doxorubicin)” value (MCF-7/adr (ABCB1); +1.25 µM FG020326) was “(6.4) fold”. The “fold-reversal (paclitaxel)” value (MCF-7/adr (ABCB1); +1.25 µM FG020326) was “(3.5) fold”, the “fold-reversal (vincristine)” value (MCF-7/adr (ABCB1); +1.25 µM FG020326) was “(2.3) fold” and the “fold-reversal (doxorubicin)” value (MCF-7/adr (ABCB1); +2.5 µM FG020326) was “(9.6) fold”. The “fold-reversal (paclitaxel)” value (MCF-7/adr (ABCB1); +2.5 µM FG020326) was “(8.8) fold”, the “fold-reversal (vincristine)” value (MCF-7/adr (ABCB1); +2.5 µM FG020326) was “(4.6) fold” and the “fold-reversal (cisplatin)” value (MCF-7/adr (ABCB1); +5 µM FG020326) was “(0.9) fold”. For the same compound, the “fold-reversal (doxorubicin)” value (MCF-7/adr (ABCB1); +5 µM FG020326) was “(14.3) fold”, the “fold-reversal (paclitaxel)” value (MCF-7/adr (ABCB1); +5 µM FG020326) was “(22.0) fold” and the “fold-reversal (vincristine)” value (MCF-7/adr (ABCB1); +5 µM FG020326) was “(10.7) fold”. For the same compound, the “fold-reversal (vincristine)” value (NIH3T3) was “(0.9) fold”, the “fold-reversal (doxorubicin)” value (KB; +1.25 µM FG020326) was “(1.0) fold” and the “fold-reversal (paclitaxel)” value (KB; +1.25 µM FG020326) was “(1.0) fold”. For the same compound, the “fold-reversal (vincristine)” value (KB; +1.25 µM FG020326) was “(1.0) fold”, the “fold-reversal (doxorubicin)” value (KB; +2.5 µM FG020326) was “(1.0) fold” and the “fold-reversal (paclitaxel)” value (KB; +2.5 µM FG020326) was “(1.0) fold”. The “fold-reversal (vincristine)” value (KB; +2.5 µM FG020326) was “(1.0) fold”, the “fold-reversal (5-FU)” value (KB; +5 µM FG020326) was “(1.0) fold” and the “fold-reversal (doxorubicin)” value (KB; +5 µM FG020326) was “(0.9) fold”. For the same compound, the “fold-reversal (paclitaxel)” value (KB; +5 µM FG020326) was “(1.1) fold”, the “fold-reversal (vincristine)” value (KB; +5 µM FG020326) was “(1.0) fold” and the “fold-reversal (vincristine)” value (KB-3-1) was “(0.9) fold”. The “effect on Rho 123 accumulation” value (KB cells [8]) was “not significantly altered”, the “fold-reversal (topotecan)” value (S1-M1-80 (ABCG2)) was “(1.0) fold” and the “fold-reversal (doxorubicin)” value (KBv200 (ABCB1); +1.25 µM FG020326) was “(4.2) fold”. For the same compound, the “fold-reversal (paclitaxel)” value (KBv200 (ABCB1); +1.25 µM FG020326) was “(5.0) fold”, the “fold-reversal (vincristine)” value (KBv200 (ABCB1); +1.25 µM FG020326) was “(16.7) fold” and the “fold-reversal (doxorubicin)” value (KBv200 (ABCB1); +2.5 µM FG020326) was “(8.0) fold”. For the same compound, the “fold-reversal (paclitaxel)” value (KBv200 (ABCB1); +2.5 µM FG020326) was “(10.3) fold”, the “fold-reversal (vincristine)” value (KBv200 (ABCB1); +2.5 µM FG020326) was “(34.7) fold” and the “fold-reversal (doxorubicin)” value (KBv200 (ABCB1); +5 µM FG020326) was “(12.2) fold”. For the same compound, the “fold-reversal (paclitaxel)” value (KBv200 (ABCB1); +5 µM FG020326) was “(30.4) fold”, the “fold-reversal (vincristine)” value (KBv200 (ABCB1); +5 µM FG020326) was “(57.3) fold” and the “fold-reversal (doxorubicin)” value (SW1573/2R120 (LRP)) was “(1.0) fold”.
